Data as given in patent publication US20070082908A1, “Bicycle pyrazole derivative” (DAINIPPON SUMITOMO PHARMA CO., LTD., priority 2003, published 2007).
Structures can show the parent of a compound that is named as a salt.

Target: T1, human DPP IV (Homo sapiens, UniProt P27487)
T1 construct: Human serum containing DPP-IV enzyme was used in an experiment after being diluted with assay buffer; from tissue; host or cells: human serum (diluted 10-fold)
Assay: In vitro DPP-IV inhibitory effect measurement test (human serum, fluorogenic substrate Gly-Pro-MCA)
Format: biochemical
Conditions: human serum diluted 10-fold as enzyme source; substrate Glycyl-L-Proline 4-Methyl-Coumaryl-7-Amide 100 μM; room temperature; read-out: Inhibitory activity against human DPP IV IC50
Procedure: In Vitro DPP-IV Inhibitory Effect Measurement Test
Human serum containing DPP-IV enzyme was used in an experiment after being diluted with assay buffer (25 mM Tris-HCl, 140 mM NaCl, 10 mM KCl, pH 7.9) (finally, diluted 10-fold). Each of solutions of each test compound having various concentrations was added to the diluted serum and the resulting mixture was incubated at room temperature. Then, a substrate (Glycyl-L-Proline 4-Methyl-Coumaryl-7-Amide, Peptide Laboratories Co., Ltd.) was added thereto to a final concentration of 100 μM and the reaction was carried out at room temperature. Acetic acid was added to the reaction mixture to a final concentration of 12.5% to terminate the reaction, and the intensity of fluorescence at an excitation wavelength of 360 nm and a measuring wavelength of 460 nm was measured by the use of a fluorescent plate reader. A compound concentration for 50% inhibition was calculated as an IC50 value from enzyme inhibitory activity values obtained by adding each test compound to a plurality of concentrations.

T1 sequence (P27487 39-766 limits assumed): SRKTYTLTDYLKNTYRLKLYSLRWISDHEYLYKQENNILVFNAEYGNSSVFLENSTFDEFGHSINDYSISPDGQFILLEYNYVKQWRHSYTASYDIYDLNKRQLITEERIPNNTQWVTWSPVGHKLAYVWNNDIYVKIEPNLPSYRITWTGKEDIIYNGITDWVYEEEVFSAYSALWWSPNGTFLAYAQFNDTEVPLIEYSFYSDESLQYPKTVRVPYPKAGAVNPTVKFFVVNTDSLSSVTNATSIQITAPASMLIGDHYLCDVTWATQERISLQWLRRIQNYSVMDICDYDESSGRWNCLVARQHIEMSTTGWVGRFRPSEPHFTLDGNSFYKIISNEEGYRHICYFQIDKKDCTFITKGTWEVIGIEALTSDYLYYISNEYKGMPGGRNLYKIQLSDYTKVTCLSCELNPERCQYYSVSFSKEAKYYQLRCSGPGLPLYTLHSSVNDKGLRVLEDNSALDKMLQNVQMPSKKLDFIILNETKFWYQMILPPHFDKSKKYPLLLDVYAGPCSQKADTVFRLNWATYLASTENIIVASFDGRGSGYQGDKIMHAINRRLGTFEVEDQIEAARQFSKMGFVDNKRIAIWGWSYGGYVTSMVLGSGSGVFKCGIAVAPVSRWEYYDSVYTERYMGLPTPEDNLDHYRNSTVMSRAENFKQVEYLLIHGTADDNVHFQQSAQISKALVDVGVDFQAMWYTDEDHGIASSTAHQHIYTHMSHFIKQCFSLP

IC50 [nM]	Compound
12	Cn1ncn2nc(N3CCC[C@@H](N)C3)c(Cc3ccccc3Cl)c2c1=O [Example 33, 2-[(3R)-3-Aminopiperidin-1-yl]-3-(2-chlorobenzyl)-5-methylpyrazolo[1,5-d][1,2,4]triazin-4(5H)-one hydrochloride]
13	Cn1c(C(N)=O)cn2nc(N3CCC[C@@H](N)C3)c(Cc3ccccc3Cl)c2c1=O [Example 21]
1.6	N[C@@H]1CCCN(c2nn3cc(C(=O)O)[nH]c(=O)c3c2Cc2ccccc2Cl)C1 [Example 17]
45	Cc1c(C)n2nc(N3CCC[C@@H](N)C3)c(Cc3ccccc3Cl)c2c(=O)n1CC(=O)c1ccccc1 [Example 18]
28	CCc1cn2nc(N3CCC[C@@H](N)C3)c(Cc3ccccc3Cl)c2c(=O)n1CC(=O)c1ccccc1 [Example 26]
24	N#Cc1ccccc1Cn1ccn2nc(N3CCC[C@@H](N)C3)c(Cc3ccccc3Cl)c2c1=O [Example 12]
82	N[C@@H]1CCCN(c2nn3cc(-c4ccccc4)[nH]c(=O)c3c2Cc2ccccc2Cl)C1 [Example 5, 2-[(3R)-3-Aminopiperidin-1-yl]-3-(2-chlorobenzyl)-6-phenylpyrazolo[1,5-a]pyrazin-4(5H)-one hydrochloride]
15	N[C@@H]1CCCN(c2nn3cn[nH]c(=O)c3c2Cc2ccccc2Cl)C1 [Example 19]
2.1	CCOC(=O)c1cn2nc(N3CCC[C@@H](N)C3)c(Cc3ccccc3Cl)c2c(=O)[nH]1 [Example 41, Ethyl 2-[(3R)-3-aminopiperidin-1-yl]-3-(2-chlorobenzyl)-4-oxo-4,5-dihydropyrazolo[1,5-a]pyrazine-6-carboxylate hydrochloride]
0.7	N[C@@H]1CCCN(c2nn3cc(C(=O)O)[nH]c(=O)c3c2Cc2cc(F)ccc2Cl)C1 [Example 7, 2-[(3R)-3-Aminopiperidin-1-yl]-3-(2-chloro-5-fluorobenzyl)-4-oxo-4,5-dihydropyrazolo[1,5-a]pyrazine-6-carboxylic acid methanesulfonate]
25	CC(C)Oc1cccc(C(=O)Cn2ccn3nc(N4CCC[C@@H](N)C4)c(Cc4ccccc4Cl)c3c2=O)c1 [Example 11]
5	Cn1c(C#N)cn2nc(N3CCC[C@@H](N)C3)c(Cc3ccccc3Cl)c2c1=O [Example 20]
6.1	COc1cccc(C(=O)Cn2ccn3nc(N4CCC[C@@H](N)C4)c(Cc4ccccc4Cl)c3c2=O)c1 [Example 13]
2.8	N[C@@H]1CCCN(c2nn3ccn(Cc4nccc5ccccc45)c(=O)c3c2Cc2ccccc2Cl)C1 [Example 10]
2.8	N[C@@H]1CCCN(c2nn3cnn(CC(=O)c4ccccc4)c(=O)c3c2Cc2ccccc2Cl)C1 [Example 34, 2-[(3R)-3-Aminopiperidin-1-yl]-3-(2-chlorobenzyl)-5-(2-oxo-2-phenylethyl)pyrazolo[1,5-d][1,2,4]triazin-4(5H)-one hydrochloride]
71	COc1ccccc1C(=O)Cn1ccn2nc(N3CCC[C@@H](N)C3)c(Cc3ccccc3Cl)c2c1=O [Example 9]
0.9	CCOC(=O)c1cn2nc(N3CCC[C@@H](N)C3)c(Cc3cc(F)ccc3Cl)c2c(=O)[nH]1 [Example 32, Ethyl 2-[(3R)-3-aminopiperidin-1-yl]-3-(2-chloro-5-fluorobenzyl)-4-oxo-4,5-dihydropyrazolo[1,5-a]pyrazine-6-carboxylate methanesulfonate]
20	COC(=O)c1[nH]c(=O)c2c(Cc3ccccc3Cl)c(N3CCC[C@@H](N)C3)nn2c1C [Example 1, Methyl 2-[(3R)-3-aminopiperidin-1-yl]-3-(2-chlorobenzyl)-7-methyl-4-oxo-4,5-dihydropyrazolo[1,5-a]pyrazine-6-carboxylate hydrochloride]
61	N[C@@H]1CCCN(c2nn3ccn(CCc4ccccc4)c(=O)c3c2Cc2ccccc2Cl)C1 [Example 14]
37	Cc1cn2nc(N3CCC[C@@H](N)C3)c(Cc3ccccc3Cl)c2c(=O)n1C [Example 4, 2-[(3R)-3-Aminopiperidin-1-yl]-3-(2-chlorobenzyl)-5,6-dimethylpyrazolo[1,5-a]pyrazin-4(5H)-one hydrochloride]
9.6	COC(=O)Cc1c(C(=O)OC)[nH]c(=O)c2c(Cc3ccccc3Cl)c(N3CCC[C@@H](N)C3)nn12 [Example 38, Methyl 2-[(3R)-3-aminopiperidin-1-yl]-3-(2-chlorobenzyl)-7-(2-methoxy-2-oxoethyl)-4-oxo-4,5-dihydropyrazolo[1,5-a]pyrazine-6-carboxylate hydrochloride]
30	N[C@@H]1CCCN(c2nn3cc[nH]c(=O)c3c2Cc2ccccc2Cl)C1 [Example 3, 2-[(3R)-3-Aminopiperidin-1-yl]-3-(2-chlorobenzyl)pyrazolo[1,5-a]pyrazin-4(5H)-one hydrochloride]
7	N[C@@H]1CCCN(c2nn3ccn(CC(=O)c4ccccc4)c(=O)c3c2Cc2ccccc2Cl)C1 [Example 8, 2-[(3R)-3-Aminopiperidin-1-yl]-3-(2-chlorobenzyl)-5-(2-oxo-2-phenylethyl)pyrazolo[1,5-a]pyrazin-4(5H)-one hydrochloride]
2.3	N[C@@H]1CCCN(c2nn3cnn(Cc4nccc5ccccc45)c(=O)c3c2Cc2ccccc2Cl)C1 [Example 35, 2-[(3R)-3-Aminopiperidin-1-yl]-3-(2-chlorobenzyl)-5-(isoquinolin-1-ylmethyl)pyrazolo[1,5-d][1,2,4]triazin-4(5H)-one hydrochloride]
2.5	COC(=O)c1cn2nc(N3CCC[C@@H](N)C3)c(Cc3ccccc3Cl)c2c(=O)[nH]1 [Example 16]
